Experimental data: patent US20230122393A1, “STEROIDAL NITRONE F2 FOR USE IN THE PREVENTION AND/OR TREATMENT OF PERMANENT CEREBRAL ISCHAEMIA” (ISQUAEMIA BIOTECH, S.L., priority 2020, published 2023)
“Also recorded” adds a separate entry of the source.

How the values were obtained:
[1] = test system: transient focal cerebral ischemia (tMCAO); experiment: Infarct volume by TTC staining after tMCAO; format: in vivo, mice; details: 48 h; for infarct volume (as percentages): VEH 19.15±1.08
global cerebral ischemia [2] = experiment: Therapeutic window of the neuroprotective effect in global cerebral ischemia; format: in vivo, rat
global cerebral ischemia [3] = experiment: Y-maze exploration activity test, long-term after global cerebral ischemia; details: i.v. at onset of reperfusion, before sacrifice at 11 weeks, vs healthy control
Procedure: (§1) In addition, animal behaviour was evaluated before sacrifice for the neurological evolution evaluation.
(§2) Animals were subjected to two behavioural tests for their neurological evaluation prior to sacrifice in order to assess the exploratory activity and spatial recognition and memory; the Y-maze paradigm was used to assess these functions. For the first test, the animal is positioned in the centre of the maze, allowing free exploration for 8 minutes. Exploratory activity is quantified and represented as an activity index. For the assessment of the spatial recognition and memory, the number of times the animals alternate among the three arms (triad number) is evaluated and quantified as an alternation index. Lower activity and/or alternation indexes are indications of reduced curiosity and spatial memory and consequently higher neurological deficit.

global cerebral ischemia [4] = experiment: Neurological deficit score (NDS), therapy window study in global cerebral ischemia; details: 5 d
Procedure: Animal model of global cerebral ischemia, experimental design and administration of nitrones. Transient forebrain ischemia was induced in adult male Wistar rats (10-12 weeks, Charles River) by the standard four-vessel occlusion model (4V0) previously described. Briefly, both vertebral arteries were irreversibly occluded by electrocoagulation under anaesthesia with a mixture of atropine, ketamine and diazepam (0.25, 62.5, and 5 mg/kg, respectively) administered by intraperitoneal injection. After 24 h, ischemia was induced by carotid occlusion with atraumatic clips for 15 min and then clips were removed from the carotid arteries to allow reperfusion. Body temperature of 37° C. was maintained. Animals were studied at 5 days after reperfusion (R5d). […] Vehicle-treated control animals were handled in the same way as treated animals.
Evaluation of neurological deficits. Neurological deficits in rats subjected to global cerebral ischemia were blindly evaluated using a scale previously described (Ayuso et al. 2015 J. Med. Chem. 58, 6704-6709; 10.1021/acs.jmedchem.5b00755). […]
Animals were subjected to a functional test before sacrifice in order to quantify their potential disability. […]
The variables quantified to evaluate de neuroprotection of NXY-059, including neurological deficit score (NDS) and neuronal death and apoptosis in brain sections, were performed as described in Example 3. […]

[5] = test system: global cerebral ischemia, hippocampal CA1 and cortical regions; experiment: Neuronal apoptosis by TUNEL assay, therapy window study in global cerebral ischemia; details: 5 d
Procedure: Animal model of global cerebral ischemia, experimental design and administration of nitrones. Transient forebrain ischemia was induced in adult male Wistar rats (10-12 weeks, Charles River) by the standard four-vessel occlusion model (4V0) previously described. Briefly, both vertebral arteries were irreversibly occluded by electrocoagulation under anaesthesia with a mixture of atropine, ketamine and diazepam (0.25, 62.5, and 5 mg/kg, respectively) administered by intraperitoneal injection. After 24 h, ischemia was induced by carotid occlusion with atraumatic clips for 15 min and then clips were removed from the carotid arteries to allow reperfusion. Body temperature of 37° C. was maintained. Animals were studied at 5 days after reperfusion (R5d). […] The treatments were performed with allocation concealment, assigning a random order to each vehicle or treated animal by a computer-generated randomization program. […] Vehicle-treated control animals were handled in the same way as treated animals. An independent investigator prepared the treatments for each animal according to the randomization schedule.
(§3) Brain sections. After 5 days after reperfusion, R5d animals were killed by transcardiac perfusion performed under deep anaesthesia. Perfusion via left ventricle was started with a washout of 200 mL of 0.9% NaCl, and the brains, following perfusion and fixation with 4% (w/v) paraformaldehyde solution in PBS, were removed and postfixed in the same solution overnight at 4° C. Brains were washed sequentially with 10, 20 and 30% (w/v) saccharose in PBS, embedded in Tissue-Tek O.C.T. (Sakura Finetek) and frozen at −80° C. prior to cryostat sectioning. Brain coronal sections containing the hippocampus were prepared at the level of interaural +5.7±0.2 mm on Real Capillary Gap microscope slides (Dako).
TUNEL assay. Apoptotic neurons within brain sections were detected using the Terminal deoxynucleotidyl transferase-mediated dUTP Nick-End Labeling (TUNEL) assay (Promega). For this test, 5-μm-thick coronal cryostat brain sections containing the dorsal hippocampal formation were obtained as described above and post-fixed with 4% formaldehyde in PBS for 5 min at room temperature. After washing in PBS for three times, sections were permeabilized with 0.1 M sodium citrate, pH 6.0, for 1 min at 95° C., quickly cooled in ice and washed in PBS for 5 min at room temperature. Then, brain sections were incubated with blocking solution (0.1 M Tris-HCl, pH 7.5, 3% bovine serum albumin and 20% fetal bovine serum), washed in PBS for 5 min, and post-fixed with 4% formaldehyde in PBS for 5 min. […]
The hippocampal CA1 subfield and cerebral and lateral cortex fields from a given section were analysed with fluorescence microscopy (40× objective) to count the number of apoptotic nuclei (green).

global cerebral ischemia [6] = experiment: Y-maze spatial recognition or alternation test, long-term after global cerebral ischemia; details: i.v. at onset of reperfusion, before sacrifice at 11 weeks, vs healthy control
Procedure: as §1, §2

[7] = test system: global cerebral ischemia, hippocampal CA1 and cortical regions; experiment: Neuronal death by Fluoro-Jade B staining, therapy window study in global cerebral ischemia; details: 5 d
Procedure: Animal model of global cerebral ischemia, experimental design and administration of nitrones. Transient forebrain ischemia was induced in adult male Wistar rats (10-12 weeks, Charles River) by the standard four-vessel occlusion model (4V0) previously described. Briefly, both vertebral arteries were irreversibly occluded by electrocoagulation under anaesthesia with a mixture of atropine, ketamine and diazepam (0.25, 62.5, and 5 mg/kg, respectively) administered by intraperitoneal injection. After 24 h, ischemia was induced by carotid occlusion with atraumatic clips for 15 min and then clips were removed from the carotid arteries to allow reperfusion. Body temperature of 37° C. was maintained. Animals were studied at 5 days after reperfusion (R5d). […] Ischemic animals were treated with nitrone F2 diluted in 10% ethanol in saline as vehicle by intravenous injection in the tail when the carotid arteries were unclamped for reperfusion. Vehicle-treated control animals were handled in the same way as treated animals.
After 5 days after reperfusion, R5d animals were killed by transcardiac perfusion performed under deep anaesthesia. Perfusion via left ventricle was started with a washout of 200 mL of 0.9% NaCl, and the brains, following perfusion and fixation with 4% (w/v) paraformaldehyde solution in PBS, were removed and postfixed in the same solution overnight at 4° C. Brains were washed sequentially with 10, 20 and 30% (w/v) saccharose in PBS, embedded in Tissue-Tek O.C.T. (Sakura Finetek) and frozen at −80° C. prior to cryostat sectioning. Brain coronal sections containing the hippocampus were prepared at the level of interaural +5.7±0.2 mm on Real Capillary Gap microscope slides (Dako).
(§4) Neuronal death evaluation. Neuronal death was evaluated by Fluoro-Jade-B staining. Brain cryosections (10 μm thick) from ischemic animals that underwent reperfusion for 5 days were used after fixation to detect neuronal death by Fluoro-Jade-B staining (Ayuso et al. 2015 J. Med. Chem. 58, 6704-6709; 10.1021/acs.jmedchem.5b00755) and visualized by fluorescence microscopy. Labelled (dead) neuronal cells (in green) were counted as in TUNEL assay (see below). Data from different animals of each experimental group were independently analysed by two observers, and treatment information was blindly performed throughout the study.
Analysis of results included neuronal damage and death, and a functional test to which the animals were subjected prior to sacrifice. All the results were obtained 5d after post-ischemic reperfusion in a model of global cerebral ischemia.

[8] = test system: global cerebral ischemia, hippocampal CA1 region; experiment: Long-term viable neurons (S6-positive cells) in hippocampal CA1 11 weeks after global cerebral ischemia; details: i.v. at onset of reperfusion; 11 weeks (77 days) after reperfusion
Procedure: Animal model of global cerebral ischemia, experimental design and administration of nitrones. Transient forebrain ischemia was induced in adult male Wistar rats (10-12 weeks, Charles River) by the standard four-vessel occlusion model (4V0) previously described. Briefly, both vertebral arteries were irreversibly occluded by electrocoagulation under anaesthesia with a mixture of atropine, ketamine and diazepam (0.25, 62.5, and 5 mg/kg, respectively) administered by intraperitoneal injection. After 24 h, ischemia was induced by carotid occlusion with atraumatic clips for 15 min and then clips were removed from the carotid arteries to allow reperfusion. Body temperature of 37° C. was maintained. Animals were studied at 5 days after reperfusion (R5d). A power analysis was performed (http://www.biomath.info/power/ttest.htm) to determine the sample size. The level of statistical significance was fixed at 0.05, the power set at 0.8 (80%), and the sample size obtained was <6 subjects per group. The treatments were performed with allocation concealment, assigning a random order to each vehicle or treated animal by a computer-generated randomization program. […]
Because of this, a new experimental strategy had to be used, based on the staining of viable neurons and its quantification in the areas of the brain more vulnerable to the ischemic episodes such as the hippocampal CA1 region. […]

[9] = test system: permanent focal cerebral ischemia (pMCAO); experiment: Infarct area/volume by TTC staining after permanent MCA occlusion (pMCAO); format: in vivo, mice; details: F2 0.1 mg/kg i.p. at 2 and 12 hours after MCA occlusion
[10] = test system: primary neuronal cultures subjected to oxygen and glucose deprivation; details: reference [17]; cited from earlier work
[11] = test system: lipid peroxidation and ROS levels; details: preliminary results, reference [17]; cited from earlier work
global cerebral ischemia [12] = details: intraperitoneal at onset of reperfusion; reference [17]; cited from earlier work
[13] = test system: permanent focal cerebral ischemia (pMCAO); experiment: Somatosensory evoked potentials after permanent MCA occlusion (pMCAO); details: F2 0.1 mg/kg i.p. at 2 and 12 h; 72 hours post-stroke and during total time of study (3 weeks)
Procedure: Evaluation of functional brain territory in stroke mice with pMCAO and treated with F2. (A) Representative somatosensory evoked contralateral potentials recorded before and 72 hours post-stroke in treated (F2) and non-treated (vehicle, control) mice. F2 was administered at 2 and 12 hours after MCA ligation. […] In both groups, the electrical stimulus was twice the current level necessary to obtain a supramaximal motor response, typically 1-2 mA. (B) Amplitude of evoked activity in the somatosensory cortex (forepaw sensory field) in the infarcted (left panel) and non-infarcted (right panel) hemispheres of non-treated (vehicle) and treated (F2) mice over time after stroke. […] Data are presented as the means ±SEM. For every time point analysed, the black asterisks denote significant differences between non-treated (vehicle) and treated (F2) mice (two-way ANOVA followed by Tukey's test; *p<0.05, **p<0.05).
Ipsilateral activity in stroke mice with pMCAO and treated with F2. […] (C) Amplitude of somatosensory evoked activity (forepaw sensory field) in the non-damaged hemisphere of non-treated (vehicle) and treated (F2) mice over time after stroke and F2 or vehicle administration.
Here, the neuroprotective efficacy of this nitrone has been assayed in a model of permanent focal cerebral ischemia in mice. […]

[14] = test system: transient focal cerebral ischemia (tMCAO); experiment: Grip strength test after transient middle cerebral artery occlusion (tMCAO); details: for grip strength: 24 hours after reperfusion, VEH 91.76±2.00
Procedure: Transient occlusion of a distal branch of the middle cerebral artery (tMCAO) was induced in male C57BL/6 mice (9-12-week-old, Charles River). […] Briefly, mice were anesthetized with 4% isoflurane for induction and 1.5-2% isoflurane for maintenance (in 79% N2/21% 02). After drilling a small hole on the temporal bone, the middle cerebral artery (MCA) was compressed for 60 min with a 30-G needle using a micromanipulator. During the surgery, body temperature was maintained at 37.0±0.5° C. using a homoeothermic blanket and CBF was monitored using laser-Doppler flowmetry to confirm MCA occlusion. Buprenorphine (0.05-0.1 mg/kg) was administered subcutaneously immediately before the procedure. […] Surgical inclusion criteria: a reduction in blood flow to <25% of baseline value during ischemia period, and a recovery of 75% of baseline value in the reperfusion period. […] The treatments were administered intraperitoneally at the onset of reperfusion period by an investigator blinded to the experimental condition.
Motor functional test was performed at 1 day before surgery and 24 h and 48 h after tMCAO to evaluate ischemic outcomes and monitor motor function by a blinded researcher to experimental conditions. […] A total of 6 trials were conducted for each test and the strength value was calculated as the mean of them.

SOD1 = SOD1 protein levels by western blot in primary neuronal cultures subjected to OGD and recovery
Procedure: Primary Neuronal Cultures. […] Cell suspensions from cerebral cortex were prepared from 16- to 17-day-old Sprague-Dawley rat embryos. Living cells in cell suspension were counted by trypan blue exclusion method. Cells were seeded on plastic multidishes precoated with 0.05 mg/mL poly-D-lysine at a density of 2.5×10^5 cells/cm2 and were kept at 37° C. in a 6.5% CO2 atmosphere in high glucose Dulbecco's medium supplemented with 15% heat-inactivated (56° C. for 30 min) foetal calf serum. […]
Exposure of Cell Cultures to Oxygen—Glucose Deprivation. […] F2 were analysed independently from 4 to 8 times with different batches of cultures, and each experiment was run in quadruplicate.
35-50 μg of protein cell extracts was resolved in 10 or 12% SDS-PAGE and blotted into a polyvinylidene difluoride (PVDF) membrane (GE Healthcare). […] Then, membranes were incubated with horseradish peroxidase-conjugated secondary antibodies for 1 h, developed with the ECL-Clarity (Bio-Rad) or Prime systems (GE Healthcare) and detected in a ChemiDoc imager (Bio-Rad).
The images were quantified using the quantification software ImageLab and Quantity One (Bio-Rad Laboratories). The protein levels were expressed as intensities in arbitrary units (AU).

[15] = test system: transient forebrain ischemia (global cerebral ischemia); experiment: Dose-response of neuroprotection (Fluoro-Jade B and TUNEL) in transitory global cerebral ischemia, four-vessel occlusion; details: for half effective concentration: i.v. at onset of reperfusion; for half effective concentration / maximal effect (percentage of neuroprotection): 5 days of reperfusion
Procedure: Animal model of global cerebral ischemia, experimental design and administration of nitrones. Transient forebrain ischemia was induced in adult male Wistar rats (10-12 weeks, Charles River) by the standard four-vessel occlusion model (4V0) previously described. Briefly, both vertebral arteries were irreversibly occluded by electrocoagulation under anaesthesia with a mixture of atropine, ketamine and diazepam (0.25, 62.5, and 5 mg/kg, respectively) administered by intraperitoneal injection. After 24 h, ischemia was induced by carotid occlusion with atraumatic clips for 15 min and then clips were removed from the carotid arteries to allow reperfusion. Body temperature of 37° C. was maintained. Animals were studied at 5 days after reperfusion (R5d). […] The treatments were performed with allocation concealment, assigning a random order to each vehicle or treated animal by a computer-generated randomization program. Ischemic animals were treated with nitrone F2 diluted in 10% ethanol in saline as vehicle by intravenous injection in the tail when the carotid arteries were unclamped for reperfusion. Vehicle-treated control animals were handled in the same way as treated animals. An independent investigator prepared the treatments for each animal according to the randomization schedule.
as §3, §4
TUNEL assay. Apoptotic neurons within brain sections were detected using the Terminal deoxynucleotidyl transferase-mediated dUTP Nick-End Labeling (TUNEL) assay (Promega). For this test, 5-μm-thick coronal cryostat brain sections containing the dorsal hippocampal formation were obtained as described above and post-fixed with 4% formaldehyde in PBS for 5 min at room temperature. After washing in PBS for three times, sections were permeabilized with 0.1 M sodium citrate, pH 6.0, for 1 min at 95° C., quickly cooled in ice and washed in PBS for 5 min at room temperature. Then, brain sections were incubated with blocking solution (0.1 M Tris-HCl, pH 7.5, 3% bovine serum albumin and 20% fetal bovine serum), washed in PBS for 5 min, and post-fixed with 4% formaldehyde in PBS for 5 min.

[16] = F2 0.05 mg/kg i.v. 48 h after reperfusion

Compound: CC(C)(C)[N+]([O-])=Cc1ccc(S(=O)(=O)[O-])cc1S(=O)(=O)[O-].[Na+].[Na+] [NXY-059, reference compound]
- infarct volume (as percentages) ([1]; NXY-059 40.0 mg/kg i.p. at onset of reperfusion): 20.37±0.93%
- therapeutic window (global cerebral ischemia [2]; NXY-059 40 mg/kg i.v., compared to F2): narrow therapeutic window compared to F2
- activity index (exploration activity test, Y-maze) (global cerebral ischemia [3]): neurological deficit was similar to the one obtained for VEH
- neurological deficit score (NDS) vs vehicle (global cerebral ischemia [4]; NXY-059 40 mg/kg i.v. 0-48 h after reperfusion): did not improve the NDS
- neuronal apoptosis (TUNEL) vs vehicle ([5]; NXY-059 40 mg/kg i.v. between 0 and 48 h after reperfusion): did not afford a significant decrease in the neuronal apoptosis
- alternation index (spatial recognition test, Y-maze) (global cerebral ischemia [6]): no significant differences when compared to the scores of the control group
- neuronal death (Fluoro-Jade B) ([7]; NXY-059 40 mg/kg i.v. 1-48 h after reperfusion): did not induce a decrease in neuronal damage
- neuronal death (Fluoro-Jade B) ([7]; NXY-059 40 mg/kg i.v. at reperfusion onset (0 h), 40 mg/kg): lower neuroprotective effect; also recorded: only induced a significant decrease of neuronal damage administered at the onset of the reperfusion
- viable neurons (S6-positive cells) in hippocampal CA1 [8]: did not recover the damage observed

Compound: CC(C)CCC[C@@H](C)[C@H]1CC[C@H]2[C@@H]3CCC4=C/C(=[N+](\C)[O-])CC[C@]4(C)[C@H]3CC[C@]12C [F2, (E)-N-((8S,9S,10R,13R,14S,17R)-10,13-dimethyl-17-((R)-6-methylheptan-2-yl)-7,8,9,11,12,13,14,15,16,17-decahydro-1H-cyclopenta[a]phenanthren-3(2H,6H,10H)-ylidene)methanamine oxide]
- decrease of infarct volume respect to NXY059 ([1]; 0.1 mg/kg F2, p<0.05): 20.27%
- decrease of infarct volume respect to control VEH ([1]; 0.1 mg/kg F2, p<0.05): 15.20%
- infarct volume (as percentages) ([1]; F2 0.1 mg/kg i.p. at onset of reperfusion): 16.24±0.85%
- infarct volume vs vehicle [9]: significantly reduces infarct volume
- infarcted area (TTC staining) vs non-treated ([9]; 48 hours): lower infarcted area
- administration time of maximum neuroprotective effect after reperfusion onset (global cerebral ischemia [2]; F2 0.05 mg/kg i.v.): 0 to 3 h
- therapeutic window of neuroprotective effect, time after onset of reperfusion (global cerebral ischemia [2]; F2 0.05 mg/kg i.v.): ≤ 6 h
- neuroprotective effect (cell viability) after OGD [10]: good neuroprotective effect in the micromolar range
- lipid peroxidation and ROS levels [11]: both decreased
- neuronal death and apoptosis in hippocampus and cortex (global cerebral ischemia [12]): decreased neuronal death and apoptosis
- somatosensory evoked cortical response, damaged hemisphere (right) [13]: preserved cortical response
- activity index (exploration activity test, Y-maze) (global cerebral ischemia [3]): activity scores that were equivalent to those observed in the control group
- grip strength ([14]; 0.05 mg/kg F2 i.p. at onset of reperfusion): 110.2±5.14 grams
- grip strength ([14]; 0.1 mg/kg F2 i.p. at onset of reperfusion): 113.2±5.35 grams
- grip strength values vs vehicle ([14]; F2 0.05 or 0.1 mg/kg at onset of reperfusion, 24 h and 48 h after reperfusion): improved grip strength values
- neurological deficit score (NDS) vs vehicle (global cerebral ischemia [4]; [16]): did not improve the NDS
- neuronal apoptosis (TUNEL) vs vehicle ([5]; F2 0.05 mg/kg i.v. at 6 h after reperfusion): significant in both hippocampus and cerebral cortex
- neuronal apoptosis (TUNEL) vs vehicle ([5]; F2 0.05 mg/kg i.v. at 48 h after reperfusion): did not afford a significant decrease in the apoptosis
- neuronal apoptosis (TUNEL) vs vehicle ([5]; F2 0.05 mg/kg i.v., maximum effect at 0-3 hours after onset of reperfusion): significant reduction of apoptosis
- alternation index (spatial recognition test, Y-maze) (global cerebral ischemia [6]): no significant differences when compared to the scores of the control group
- neuronal death (Fluoro-Jade B) vs vehicle [7, 16]: did not afford a significant decrease in the neuronal damage
- neuronal death (Fluoro-Jade B) vs vehicle ([7]; F2 0.05 mg/kg i.v. between 0 and 6 h after reperfusion, CA1 and cortex): significantly decreased neuronal death
- SOD1 levels (SOD1; 5 μM F2, 2 h after OGD, vs untreated and control groups): significant increase of SOD1 levels
- enhancement of the SOD1 increase caused by OGD alone (SOD1; 5 μM F2, 24 h after OGD): 15%
- viable neurons (S6-positive cells) in hippocampal CA1 [8]: significantly preserves neuronal viability
- half effective concentration ([15]; cerebral cortex): 0.015 mg/kg
- maximal effect (percentage of neuroprotection) ([15]; cerebral cortex, reached at 0.05 mg/kg i.v. at onset of reperfusion): 81%
- most effective dose in decreasing neuronal death and apoptosis ([15]; doses 0.01-0.1 mg/kg i.v., 5 days after reperfusion): 0.05 mg/kg
- maximal effect (percentage of neuroprotection) ([15]; hippocampal region CA1, at 0.05 mg/kg i.v. at onset of reperfusion): 35%
- half effective concentration ([15]; hippocampal region CA1): 0.025 mg/kg
